This is an account of results in US6448247B1, “Method for treating an inflammatory disease” (Sankyo Company, Limited, priority 1995, dated 2002).

A word on the IC50: it is the concentration that inhibits the measured activity by half.

Test [1] concerns bronchoconstriction induced with [Nle^10]-NKA[4-10], an NK2 receptor agonist. The experiment in a line: Inhibitory Effect on NKA-Induced Bronchoconstriction. Particulars: i.v., male Hartley guinea pigs, airway pressure, test drug 5 min before [Nle^10]-NKA[4-10] i.v. The format is in vivo, guinea pig. As to the method:
The inhibitory effect on bronchoconstriction induced with [Nle^10]-NKA[4-10], an NK2 receptor agonist having higher specificity than neurokinin A (NKA), was assessed based on airway pressure as an index according to the modified method of Konzett-Rössler [Naunyn-Schmiedebergs Arch.Exp.Pathol.Pharmakol., 195, 71, (1940)] using guinea pigs (body weight: approximately 500 g, male Hartley guinea pigs).
After canulating the trachea of the guinea pigs under pentobarbital anaesthesia (30 mg/kg, s.c.) and treatment with gallamine (20 mg/kg, i.v.), the animals were ventilated artificially with a constant volume respiration pump (UgoBasile, 7025) at a frequency of 60 per minute and a tidal volume of 8 ml/kg. Airway pressure during artificial respiration was amplified by means of a pressure transducer (Nihon Koden, TP-200T) installed in a branch of the trachea cannula, detected (Nihon Koden, AP-610G), and recorded with a recorder (Nihon Koden, WT-685G). Following pre-treatment with atropine (1 mg/kg, i.v.) and propranolol (1 mg/kg, i.v.), the test drug was administered intravenously. Five minutes later, bronchoconstriction was induced with [Nle^10]-NKA[4-10] at […], i.v., and then airway pressure was measured for 10 minutes. The inhibitory effect was determined based on the intensity of bronchoconstriction of guinea pigs not treated with the test drug, and expressed as the percent of inhibition (%) and the dose level that caused inhibition of 50% (ID50).

In test [2] the target is T1, NK2 receptors (Cavia porcellus, UniProt Q64077).
T1 construct: A crude membrane fraction was prepared from the ileum of male Hartley guinea pigs; from tissue; host or cells: guinea pig ileum (crude membrane fraction)
T1 sequence (Q64077 1-402): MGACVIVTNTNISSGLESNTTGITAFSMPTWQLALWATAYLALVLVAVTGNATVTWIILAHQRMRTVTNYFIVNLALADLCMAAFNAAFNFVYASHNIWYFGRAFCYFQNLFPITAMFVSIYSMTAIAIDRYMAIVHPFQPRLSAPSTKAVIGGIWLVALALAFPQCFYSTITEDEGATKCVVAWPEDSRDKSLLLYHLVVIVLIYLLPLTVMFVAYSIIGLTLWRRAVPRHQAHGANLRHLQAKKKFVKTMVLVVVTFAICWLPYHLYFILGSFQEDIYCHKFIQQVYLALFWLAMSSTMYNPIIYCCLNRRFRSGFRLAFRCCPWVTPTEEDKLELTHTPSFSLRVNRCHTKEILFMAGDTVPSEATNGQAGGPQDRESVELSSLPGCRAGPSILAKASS
The test is described as follows: NK2 Receptor Binding Test. Also on record: species or system guinea pig. As to the method:
(a) Preparation of Crude Ileum Membrane Fraction
A crude membrane fraction was prepared from the ileum of male Hartley guinea pigs. The guinea pigs were bled from the cava abdominalis under chloroform anaesthesia and the ileum was extracted immediately.
After the contents, secreta and epithelium of the lumen had been scraped off using a glass slide, the extracted ileum was thinly cut in a buffer (1) (50 mM Tris-HCl, pH 7.4) and then homogenised in a buffer (2) [buffer (1) containing 120 mM sodium chloride and 5 mM potassium chloride] using a Polytron homogenizer.
(§1) The tissue mass was removed from the homogenate by filtration with a nylon mesh (50 μm) and the supernatant was centrifuged (30,000×g, 30 minutes, 4° C.). The resultant pellet was resuspended in an ice-cooled buffer (3) [buffer (1) containing 10 mM EDTA and 30 mM potassium chloride], allowed to stand at 4° C. for 60 minutes and then washed centrifugally twice (30,000×g, 15 minutes, 4° C.).
(§2) The crude membrane fraction was preserved at −80° C. before use.
(§3) (b) Receptor Binding Test
To a mixed solution (250 μl) of the test drug and [^3H]-SR-48968 (manufactured by Amasham Co., final concentration: 1 nM) (50 mM Tris-HCl, pH 7.4; 4.6 mM manganese chloride, 800 μg/ml BSA, 8 μg/ml chymostatin, 8 μg/ml leupeptin, 80 μg/ml bacitracin, […] phosphoramidon) was added a crude ileum membrane fraction solution (250 μl), followed by incubation at room temperature for 30 minutes.
At the end of this time, a membrane ingredient was recovered on a GF/B glass fiber filter (manufactured by Whatman Co.) using an automatic filtering device (manufactured by Brandel Co.). The glass filter was used after pre-treatment with a 0.1% polyethyleneimine solution for about 4 hours so as to inhibit non-specific binding as little as possible.
The membrane ingredient-recovered filter was transferred to a mini-plastic vial containing a pico flow (4 ml) and the radioactivity was measured using a liquid scintillation counter (LSC3000, manufactured by Beckman Co.).

In test [3] the test system is increased vascular permeability induced by substance P (SP), an NK1 receptor agonist. The experiment in a line: Inhibitory Effect on SP-Induced Increased Vascular Permeability. Format: in vivo, guinea pig. Particulars: i.v., male Hartley guinea pigs, pigment (Evans blue) leakage into primary bronchus 15 min after SP i.v. The protocol: The inhibitory effect on increased vascular permeability induced by substance P (SP), an NK1 receptor agonist, was assessed based on the amount of pigment leakage as an index using guinea pigs (body weight: approx. 400 g, male Hartley guinea pigs). Immediately after administering pigment (Evans blue: 20 mg/kg, i.v.) and the test drug in that order into the femoral vein of the guinea pigs under pentobarbital anaesthesia (25 mg/kg, i.p.), increased vascular permeability was induced by administration of SP ([…], i.v.). Fifteen minutes later, the guinea pigs were sacrificed by chloroform anaesthesia and the amount of pigment that leaked into the primary bronchus was measured according to the method of Harada (J. Pharm. Pharmacol., 23, 218, 1971). Inhibitory effect was determined based on the amount of pigment leakage found in guinea pigs not treated with the test drug, and expressed as the percent of inhibition (%) and the dose level that caused inhibition of 50% (ID50).

In test [4] the target is T2, NK1 receptors (Cavia porcellus, UniProt P30547).
T2 construct: A crude membrane fraction was prepared from the lung of male Hartley guinea pigs; from tissue; host or cells: guinea pig lung (crude membrane fraction)
The experiment in a line: NK1 Receptor Binding Test. Also on record: species or system guinea pig. The protocol: (a) Preparation of Crude Lung Membrane Fraction
A crude membrane fraction was prepared from the lung of male Hartley guinea pigs. The guinea pigs were bled from the cava abdominalis under chloroform anaesthesia and the pulmonary airway tissue was extracted immediately.
as §1, with “The extracted lung was perfused with a buffer (1) (50 mM Tris-HCl, pH 7.4), thinly cut in the buffer, and then homogenised in a buffer (2) [buffer (1) containing 120 mM sodium chloride and 5 mM potassium chloride] using a Polytron homogenizer. The tissue” for “The tissue”, “EDTA and 300 mM potassium” for “EDTA and 30 mM potassium”
as §2, §3
To a mixed solution (250 μl) of the test drug and [^3H]-substance P (final concentration: 1 nM) (50 mM Tris-HCl, pH 7.4; 6 mM manganese chloride, 800 μg/ml BSA, 8 μg/ml chymostatin, 8 μg/ml leupeptin, 80 μg/ml bacitracin, 20 μg/ml phosphoramidon) was added a crude lung membrane fraction solution (250 μl), followed by incubation at room temperature for 30 minutes.
At the end of this time, a lung membrane ingredient was recovered on a GF/B glass fiber filter (manufactured by Whatman Co.) using an automatic filtering device (manufactured by Brandel Co.).
The glass filter was used after being pre-treated with a 0.1% polyethyleneimine solution for about 4 hours so as to inhibit non-specific binding as little as possible. The membrane ingredient-recovered filter was transferred to a mini-plastic vial containing a pico flow (4 ml) and the radioactivity was measured using a liquid scintillation counter (LSC3000, manufactured by Beckman Co.).

[5] abbreviates: [3H]-SR-48968 1 nM, crude ileum membrane fraction of male Hartley guinea pigs, read-out: IC50 (converted).
Where [6] appears, read: [3H]-substance P 1 nM, crude lung membrane fraction of male Hartley guinea pigs, read-out: IC50 (converted).

Structures are written as SMILES. Like-named read-outs stand apart in the source and are kept apart here.

T2 sequence (P30547 whole entry): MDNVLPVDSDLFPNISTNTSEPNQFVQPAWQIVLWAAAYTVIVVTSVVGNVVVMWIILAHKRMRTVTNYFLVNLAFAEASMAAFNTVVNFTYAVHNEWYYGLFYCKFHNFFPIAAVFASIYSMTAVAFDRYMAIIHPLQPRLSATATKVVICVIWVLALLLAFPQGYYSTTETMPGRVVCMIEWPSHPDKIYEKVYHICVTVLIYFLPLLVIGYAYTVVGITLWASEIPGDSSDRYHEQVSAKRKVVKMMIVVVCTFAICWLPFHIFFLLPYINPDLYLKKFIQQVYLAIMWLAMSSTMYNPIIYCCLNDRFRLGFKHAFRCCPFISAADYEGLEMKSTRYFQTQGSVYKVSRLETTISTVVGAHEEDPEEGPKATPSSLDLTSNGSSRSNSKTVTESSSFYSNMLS

Turning to `COc1cc(C(=O)N2CC[C@](CCN3CCC(C(N)=O)(c4ccccc4)CC3)(c3ccc(Cl)c(Cl)c3)C2)cc(OC)c1OC` [Compound C], the figures for the ID50 in test [1] and in test [3] were 1.7 mg/kg and 0.019 mg/kg, respectively. Also, the concentration for half-maximal inhibition (IC50) in test [2] (setting [5]) was 48.4 nM; in test [4] (setting [6]), 10.1 nM. In addition, in test [2] (comment on Table 5), the “activity in NK2 binding test (in words)” value is given as “very weak activity”.
`COc1cc(C(=O)N2CCOC(CCN3CCC4(CC3)c3ccccc3C[S+]4[O-])(c3ccc(Cl)c(Cl)c3)C2)cc(OC)c1OC` [Example 76, 1-{2-[(2R)-(3,4-Dichlorophenyl)-4-(3,4,5-trimethoxybenzoyl)morpholin-2-yl]ethyl}spiro[benzo[c]thiophene-1(3H),4′-piperidine]-(2S)-oxide]: the ID50 in test [1] and in test [3] was 0.047 mg/kg throughout.
Take `COc1cc(C(=O)N2CO[C@](CCN3CCC4(CC3)c3ccccc3C[S@+]4[O-])(c3ccc(Cl)c(Cl)c3)C2)cc(OC)c1OC` [Example 75, 1-{2-[(5R)-(3,4-Dichlorophenyl)-3-(3,4,5-trimethoxybenzoyl)oxazolidine-5-yl]ethyl}spiro[benzo[c]thiophene-1(3H),4′-piperidine]-(2S)-oxide]: the ID50 in test [1] is 0.074 mg/kg; in test [3], 0.025 mg/kg. The 50% inhibitory concentration (IC50) is 1.29 nM in test [2] (setting [5]) and 8.94 nM in test [4] (setting [6]).
In the case of `CN(C[C@@H](CCN1CCC2(CCc3ccccc32)CC1)c1ccc(Cl)c(Cl)c1)C(=O)c1ccccc1` [Compound B], the ID50 in test [1] was 0.37 mg/kg; in test [3] it was greater than 10 mg/kg. For the same molecule, the IC50 was 4.22 nM in test [2] and greater than 1920 nM in test [4].
Regarding `Cc1cc(C)cc(C(=O)N(C)C[C@@H](CCN2CCC3(CC2)CN(S(C)(=O)=O)c2ccccc23)c2ccc(Cl)c(Cl)c2)c1` [Compound A], the ID50 is greater than 10 mg/kg in test [1] and 5.8 mg/kg in test [3]. Besides, the IC50 in test [2] (setting [5]) is 28.6 nM; in test [4] (setting [6]), 60.4 nM.
